Measurements published in patent US10570179B2, “Substituted urea depsipeptide analogs as activators of the CLPP endopeptidase” (priority 2016, dated 2020).
Numbered stars: 1 amine (or outer) side, 2 acyl side, 3 side chain; on linkers, the order of the positions; unused ones are H or OH. Bridge positions count the residues as written; N and C are the ends. Square brackets hold non-standard residues; d marks the D form. Peptide text beside a SMILES is read from it. * marks the point of attachment. Phe(3-CF3) = N[C@@H](Cc1cccc(C(F)(F)F)c1)C(=O)O; Piperazine(2S-CO,4-Me) = CN1CCN[C@H](C(=O)O)C1; Phe(3-Cl) = N[C@@H](Cc1cccc(Cl)c1)C(=O)O; Phe(3-Me) = Cc1cccc(C[C@H](N)C(=O)O)c1; NH(4-Cl-2-F-phenyl) = Fc1cc(Cl)ccc1N*; Pro(4R-Me) = C[C@H]1CN[C@H](C(=O)O)C1; Propanoyl(3-NMe2) = CN(C)CCC(=O)*; Hyp = O=C(O)[C@@H]1C[C@@H](O)CN1; NH(4-Me-phenyl) = Cc1ccc(N*)cc1; aThr = C[C@H](O)[C@H](N)C(=O)O; Pip = O=C(O)[C@@H]1CCCCN1; CO = O=C([*:1])[*:2]

Tests used:
[1] = tested on: S. aureus ΔClpP; assay: Minimal inhibitory concentration, microbroth dilution; format: cell-based, Staphylococcus aureus; details: MIC; ClpP inactivated
Summary of the method: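 Following CLSI M7-A7 microbroth dilution, twofold serial dilutions of compound (top final concentration 200 μM) were combined with an equal volume of broth inoculum at about 10^5 cfu/mL. Plates were incubated aerobically at 37 °C overnight, and the MIC was the lowest concentration preventing visible growth.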

[2] = Microsomal metabolic stability; format: in vitro ADME, human
Protocol: Compounds were initially prepared by dissolving them into DMSO at a final concentration of 10 mM. NADPH regenerating solutions A and B and mouse liver microsomes (CD-1) were obtained from BD Gentest (Woburn, Mass.). Ninety-six well deep well plates were obtained from MidWest Scientific Inc (Valley Park, Mo.).
Sample preparation for microsomal stability was modified from methods of Di, L., et al., Int J Pharm. 2005 Jun. 13; 297(1-2):110-9. A set of incubation times of 0, 15, 30, 60, 120, and 240 minutes were used. Mouse liver microsomal solutions were prepared by adding 58 μL of concentrated human or mouse liver microsomes (20 mg/mL protein concentration) to 1.756 mL of 0.1 M potassium phosphate buffer (pH 7.4) and 5 μL of 0.5 M EDTA to make a 0.6381 mg/mL (protein) microsomal solution. NADPH regenerating agent contained 113 μL of NADPH A, 23 μL of NADPH B, and 315 μL of 0.1 M potassium phosphate buffer (pH 7.4). The diluted test compound solutions (2 μL) were each added directly to a 1.79 mL of liver microsomal solution. This solution was mixed and 90 μL was transferred to 6 time points plates (each in triplicate wells). For the time 0 plate, 225 μL of cold acetonitrile with internal standard ([…] warfarin) was added to each well, followed by addition of NADPH regenerating agent (22.5 μL) and no incubation. For other five time points' plate, NADPH regenerating agent (22.5 μL) was added to each well to initiate the reaction. The plates were incubated at 37° C. for the required time, followed by quenching of the reaction by adding 225 μL of cold acetonitrile with internal standard (4 μg/ml warfarin). All of the plates were sealed and mixed well at 600 rpm for 10 minutes followed by centrifugation at 4000 rpm for 20 minutes. The supernatants (120 μL) were transferred to analytical plates for analysis by LCMS. LCMS conditions were described in the materials and instrumentation section above. The metabolic stability is evaluated via the half-life from least-squares fit of the multiple time points based on first-order kinetics.

[3] = Plasma protein binding, rapid equilibrium dialysis; format: in vitro ADME, human; details: 10 μM
Protocol: This assay determines plasma protein binding of a drug/compound and free drug concentration in plasma using rapid equilibrium dialysis, which allow the aqueous component of plasma containing the free drug/compound through a dialysis membrane (MWCO˜8,000).
Solutions were prepared at 10 mM in DMSO. Dulbecco's phosphate buffered saline (DPBS; pH 7.4) was obtained from Invitrogen (Carlsbad, Calif.). Single-Use RED (rapid equilibrium dialysis) device was obtained from Thermo scientific (Rockford, Ill.). Human plasma was obtained from Innovative Research INC (Novi, Michigan, Ill).
Sample preparation for plasma protein binding was modified from Waters' method. (Waters et al. (2008) J. Pharm. Sci. 97(10): 4586-95). The Teflon base plate with the RED inserts (MWCO 8 K) were allowed to use without any pre-condition the membrane inserts. Human plasma was thawed and centrifuged at 1000 rpm for 2 min to remove any particulates. Each compound was prepared at 10 μM in human plasma. This was done by adding 1 μL, of drug solution (10 mM in DMSO) to 1000 μL, of human plasma (0.1% DMSO). Spiked plasma solutions (300 μL) were placed into the sample chamber (indicated by the red ring) and 500 μL, of DPBS into the adjacent chamber. The plate was sealed and incubated at 37° C. on an orbital shaker (100 rpm) for 4 hours. After incubation, the seal was removed from the RED plate and the volume of the insert confirmed—little to no volume change occurred. Aliquots (50 μL) were removed from each side of the insert and dispensed into a 96-well deep plate. An equal volume of blank plasma or DPBS was added to the required wells to create analytically identical sample matrices (matrix matching). To each sample 200 μL, of ACN containing 4 μg/mL warfarin IS was added. All of the plates were sealed and mixed well at 600 rpm for 10 min and were centrifuged at 4000 rpm for 20 min. The supernatants (120 μL) were transferred to analytical plates for analysis by LCMS. Conditions for Waters ACQUITY-UPLC-MS-UV system were described separately. The test compound concentrations were quantified in both buffer and plasma chambers via peak areas relative to the internal standard. The percentage of the test compound bound to plasma was calculated on following equations: % Free=(Concentration buffer chamber/concentration plasma chamber)×100% and % Bound=100%-% Free.

Compound	Minimal Inhibitory Concentrations (μM) S. aureus ΔClpP [1] [µM]	Human ([2]; human, pH 7.4)	Human ([3]; human, 4 h, pH 7.4) [%]	Human ([2]; microsomal metabolic stability half-life, human liver microsomes) [h]	Human ([3]; plasma binding, % Bound, human plasma) [%]
C[C@@H]1C[C@H]2C(=O)O[C@@H](C)[C@H](NC(=O)[C@H](Cc3cccc(Cl)c3)NC(=O)Nc3ccc(Cl)cc3F)C(=O)N3CCC[C@H]3C(=O)N3CCN(C)C[C@H]3C(=O)N[C@@H](C)C(=O)N2C1 [Compound 33] ({NH(4-Cl-2-F-phenyl)-CO}-[Phe(3-Cl)][aThr]P[Piperazine(2S-CO,4-Me)]A[Pro(4R-Me)]; ester 2-C)	>20	9.25 ± .255 h	99.1 ± 9.1	–	–
Cc1ccc(NC(=O)N[C@@H](Cc2cccc(C)c2)C(=O)N[C@H]2COC(=O)[C@@H]3C[C@@H](C)CN3C(=O)[C@H](C)NC(=O)[C@@H]3CN(C)CCN3C(=O)[C@@H]3CCCN3C2=O)cc1 [Compound 15, (S)-3-(M-TOLYL)-2-(3-(P-TOLYL)UREIDO)-N-((6AS,12S,15AS,17R,21S,23AS)-2,17,21-TRIMETHYL-6,11,15,20,23-PENTAOXOOCTADECAHYDRO-2H,6H,11H,15H-PYRAZINO[2,1-I]DIPYRROLO[2,1-C:2′,1′-L][1]OXA[4,7,10,13]TETRAAZACYCLOHEXADECIN-12-YL)PROPANAMIDE] ({NH(4-Me-phenyl)-CO}-[Phe(3-Me)]SP[Piperazine(2S-CO,4-Me)]A[Pro(4R-Me)]; ester 2-C)	>20	–	–	0.67 ± 0.04	95.2 ± 1.5
Cc1cccc(C[C@H](NC(=O)Nc2ccc(Cl)cc2F)C(=O)N[C@H]2COC(=O)[C@@H]3C[C@@H](C)CN3C(=O)[C@H](C)NC(=O)[C@@H]3CCCCN3C(=O)[C@@H]3C[C@H](N)CN3C2=O)c1 [Compound 12, (S)—N-((2R,6S,8AS,14AS,16S,20S,23AS)-16-AMINO-2,6-DIMETHYL-5,8,14,19,23-PENTAOXOOCTADECAHYDRO-1H,5H,14H,19H-PYRIDO[2,1-I]DIPYRROLO[2,1-C:2′,1′-L][1]OXA[4,7,10,13]TETRAAZACYCLOHEXADECIN-20-YL)-2-(3-(4-CHLORO-2-FLUOROPHENYL)UREIDO)-3-(M-TOLYL)PROPANAMIDE]	>20	3.34 ± 0.6 h	99.9 ± 0.2	–	–
Cc1cccc(C[C@H](NC(=O)Nc2ccc(Cl)cc2F)C(=O)N[C@@H]2C(=O)N3C[C@H](OC(=O)CCN(C)C)C[C@H]3C(=O)N3CCCC[C@H]3C(=O)N[C@@H](C)C(=O)N3C[C@H](C)C[C@H]3C(=O)O[C@H]2C)c1 [Compound 46, (2R,6S,8AS,14AS,16R,20S,21S,23AS)-20-((S)-2-(3-(4-CHLORO-2-FLUOROPHENYL)UREIDO)-3-(M-TOLYL)PROPANAMIDO)-2,6,21-TRIMETHYL-5,8,14,19,23-PENTAOXOOCTADECAHYDRO-1H,5H,14H,19H-PYRIDO[2,1-I]DIPYRROLO[2,1-C:2′,1′-L][1]OXA[4,7,10,13]TETRAAZACYCLOHEXADECIN-16-YL 3-(DIMETHYLAMINO)PROPANOATE] ({NH(4-Cl-2-F-phenyl)-CO}-[Phe(3-Me)][aThr][Hyp](Propanoyl(3-NMe2))[Pip]A[Pro(4R-Me)]; ester 2-C)	>20	2.09 ± 0.14 h	99.5 ± 0.3	–	–
C[C@@H]1C[C@H]2C(=O)OC[C@H](NC(=O)[C@H](Cc3cccc(C(F)(F)F)c3)NC(=O)Nc3ccc(Cl)cc3F)C(=O)N3CCC[C@H]3C(=O)N3CCN(C)C[C@H]3C(=O)N[C@@H](C)C(=O)N2C1 [Compound 18, (S)-2-(3-(4-CHLORO-2-FLUOROPHENYL)UREIDO)-3-(3-(TRIFLUOROMETHYL)PHENYL)-N-((6AS,12S,15AS,17R,21S,23AS)-2,17,21-TRIMETHYL-6,11,15,20,23-PENTAOXOOCTADECAHYDRO-2H,6H,11H,15H-PYRAZINO[2,1-I]DIPYRROLO[2,1-C:2′,1′-L][1]OXA[4,7,10,13]TETRAAZACYCLOHEXADECIN-12-YL)PROPANAMIDE] ({NH(4-Cl-2-F-phenyl)-CO}-[Phe(3-CF3)]SP[Piperazine(2S-CO,4-Me)]A[Pro(4R-Me)]; ester 2-C)	>20	0.75 ± 0.11 h	99.0 ± 0.1	–	–
